Measurements from PMC12525650, “Pharmacokinetic Profile of Extracts from the Chayote (Sechium edule) H387 07 Hybrid and Phytochemical Characterization of Its Segregant H387 M16 for Potential Therapeutic Applications” (Molecules, 2025).
Read-outs that look alike come from different tables or passages of the source.

Legend:
[1] = HPLC pharmacokinetics of secondary metabolites in serum/plasma, liver and urine of mice after oral Sechium H387 07 extract; set-up: species or system female CD-1 mice (Mus musculus L.)
Description: Pharmacokinetic parameters were evaluated in female CD-1 mice (Mus musculus L.) provided by the vivarium of the Faculty of Higher Studies, Zaragoza, National Autonomous University of Mexico. All mice were clinically healthy, approximately 12 weeks old, and weighed ~30 g. […] Female mice were selected as the available cohort from the institutional vivarium, and their use allowed us to establish baseline pharmacokinetic parameters under standardized conditions. […] Animals were randomly assigned to treatment groups. Treatment allocation and sample collection were blinded. All experimental procedures were approved by the Research Ethics Committee of the Faculty of Higher Studies, Zaragoza (FESZ/CEI/1/1/5/27/23).
For the HPLC quantification of metabolites, concentrations were expressed as µg/mL for serum and urine and as µg/mg of tissue for liver samples. The results were translated into graphical form using the identified metabolites. The Cmax and time to reach maximum concentration (Tmax) of the secondary metabolites were obtained directly from the concentration–time curve.
The area under the plasma concentration–time curve from time zero to the last measurable concentration ( AUC0−t ) was calculated using the linear trapezoidal rule, according to the following formula: AUC0−t=∑i=1n−1Ci+Ci+1/2×ti+1−ti where Ci and Ci+1 are the plasma concentrations at consecutive time points ti and ti+1 . The total area under the curve ( AUC0−∞ ) was obtained as the sum of AUC0−t and the extrapolated area from the last measurable concentration to infinity, calculated as:(1) AUC0−∞=AUC0−t+Clast/kel where Clast is the final observed concentration and kel is the terminal final elimination constant estimated from the slope of the log-linear portion of the concentration–time curve.

[2] = cited from earlier work
[3] = cited from earlier work; remark: listed apart in the source
[4] = mice, serum, oral extract 8, 125, 250 mg/kg, 1, 6, 24, 48 h
[5] = mice, oral extract 8, 125, 250 mg/kg, 1, 6, 24, 48 h
[6] = mice, liver, oral extract 8, 125, 250 mg/kg, 1, 6, 24, 48 h
[7] = mice, plasma, oral extract 8 mg/kg
[8] = female, CD-1, mouse, in vivo, po, 8 mg/kg

Structure (SMILES): C[C@@H]1O[C@@H](OC[C@H]2O[C@@H](Oc3c(-c4ccc(O)c(O)c4)oc4cc(O)cc(O)c4c3=O)[C@H](O)[C@@H](O)[C@@H]2O)[C@H](O)[C@H](O)[C@H]1O [Rutin]
- serum concentration, change with dose and time [1, 4]: marked decrease at the 250 mg/kg dose

Structure (SMILES): COc1ccc([C@@H]2CC(=O)c3c(O)cc(O[C@@H]4O[C@H](CO[C@@H]5O[C@@H](C)[C@H](O)[C@@H](O)[C@H]5O)[C@@H](O)[C@H](O)[C@H]4O)cc3O2)cc1O [hesperidin]
- urine concentration, change with dose and time [1, 5]: increased under the 8 mg/kg dose at 6 and 24 h

Structure (SMILES): CC(C)(O)/C=C/C(=O)[C@](C)(O)[C@H]1[C@H](O)C[C@@]2(C)[C@@H]3CC=C4[C@@H](C[C@H](O)C(=O)C4(C)C)[C@]3(C)C(=O)C[C@]12C [CuD, Cucurbitacin D]
- Tmax ([1]; female, CD-1, mouse, in vivo, mice, serum/plasma, oral extract 125 mg/kg, read-out: Tmax): 24 h
- liver concentration, change with dose and time [1, 6]: no significant variations

Structure (SMILES): O=c1cc(-c2ccc(O)cc2)oc2cc(O[C@@H]3O[C@H](CO)[C@@H](O)[C@H](O)[C@H]3O)cc(O)c12 [apigenin-7-O-β-D-glucoside, reference compound]
- AUC0−t ([2]; rat, in vivo, iv): 680 to 1560 ng·h/mL

Structure (SMILES): CC(=O)OC(C)(C)/C=C/C(=O)[C@](C)(O)[C@H]1[C@H](O)C[C@@]2(C)[C@@H]3CC=C4[C@@H](C=C(O)C(=O)C4(C)C)[C@]3(C)C(=O)C[C@]12C [Cucurbitacin E, cucurbitacin E]
- Cmax ([1]; female, CD-1, mouse, in vivo, po, 8 mg/kg, read-out: Cmax): 420 ng/mL
- Tmax ([1]; female, CD-1, mouse, in vivo, mice, plasma, oral extract 8 mg/kg, Table S1, unit inferred, read-out: Tmax): 2.5 ± 0.3 h
- AUC(0-t) ([1]; female, CD-1, mouse, in vivo, mice, plasma, oral extract 8 mg/kg, read-out: AUC0−t): 1450 ± 110 ng·h/mL
- AUC ([1]; female, CD-1, mouse, in vivo, mice, plasma, oral extract 8 mg/kg, read-out: AUC0 ∞): 1800 ng·h/mL
- half-life ([1]; female, CD-1, mouse, in vivo, mice, plasma, oral extract 8 mg/kg, read-out: T1/2 (converted)): 8.4 ± 1.2 h
- liver concentration, change with dose and time [1, 6]: no significant variations
- Clearance [1, 7]: 10.8 mL/min/kg
- Vd [1, 7]: 4.8 L/kg
- urine concentration, change with dose and time [1, 5]: clear increase under the 8 mg/kg treatment
- peak plasma concentration ([3]; at 2 h post-dose): approximately 0.009 µg/mL

Structure (SMILES): CC(=O)OC(C)(C)CCC(=O)[C@](C)(O)[C@H]1[C@H](O)C[C@@]2(C)[C@@H]3CC=C4[C@@H](C[C@H](O)[C@@H](O)C4(C)C)[C@]3(C)C(=O)C[C@]12C [CuIIA, cucurbitacin IIA]
- liver concentration, change with dose and time [1, 6]: remained significant for up to 48 h with the 250 mg/kg treatment
- serum Tmax ([1]; mice, serum, across all doses (8, 125, 250 mg/kg)): 24 h
- serum concentration, change with dose and time [1, 4]: transient decrease to near-zero concentrations at 6 h, followed by a marked increase at 24 h
- urine concentration, change with dose and time [1, 5]: high concentrations were observed in urine
- time of absorption (Tmax) in previous reports [3]: ~ 20 min

Structure (SMILES): CC(C)(O)/C=C/C(=O)[C@](C)(O)[C@H]1[C@H](O)C[C@@]2(C)[C@@H]3CC=C4[C@@H](C=C(O)C(=O)C4(C)C)[C@]3(C)C(=O)C[C@]12C [CuI, cucurbitacin I]
- liver concentration, change with dose and time [1, 6]: no significant variations
- liver concentration ([1]; mice, liver, oral extract 125 and 250 mg/kg): > 20 µg/mg
- serum concentration, change with dose and time [1, 4]: concentrations remained near the limit of quantification

Structure (SMILES): O=C1C[C@@H](c2ccc(O)cc2)Oc2cc(O)cc(O)c21 [Naringenin]
- liver concentration, change with dose and time ([1]; female, CD-1, mouse, in vivo): significantly decreased after 24–48 h with the 8 mg/kg dose

Structure (SMILES): O=C(CCc1ccc(O)cc1)c1c(O)cc(O)cc1O [Phloretin]
- liver concentration, change with dose and time ([1]; female, CD-1, mouse, in vivo): increased significantly with a dose of 125 mg/kg at 6 and 48 h post-treatment
- serum concentration, change with dose and time ([1]; female, CD-1, mouse, in vivo): decreased between 6 and 24 h at 125 mg/kg
- Tmax ([1]; female, CD-1, mouse, plasma, po, 8 mg/kg, mice, plasma, oral extract 8 mg/kg, Table S1, unit inferred, read-out: Tmax): 2 ± 0.4 h
- half-life ([1]; female, CD-1, mouse, plasma, po, 8 mg/kg, mice, plasma, oral extract 8 mg/kg, read-out: T1/2 (converted)): 4.2 ± 0.6 h
- Tmax ([1]; female, CD-1, mouse, plasma, po, 8 mg/kg, mice, plasma, oral extract 8 mg/kg, read-out: Tmax): 4.2 h
- Cmax ([1]; female, CD-1, mouse, plasma, po, 8 mg/kg, read-out: Cmax): 1120 ng/mL
- AUC(0-t) ([1]; female, CD-1, mouse, mice, plasma, oral extract 8 mg/kg, read-out: AUC0−t): 3450 ± 310 ng·h/mL
- AUC ([1]; female, CD-1, mouse, mice, plasma, oral extract 8 mg/kg, read-out: AUC0 ∞): 6100 ng·h/mL
- Clearance [1, 7]: 13.7 mL/min/kg
- Vd [1, 7]: 0.95 L/kg

Structure (SMILES): O=c1cc(-c2ccc(O)cc2)oc2cc(O)cc(O)c12 [Apigenin]
- AUC [1, 8]: 2390 ± 210 ng·h/mL
- AUC(0-t) [1, 8]: 2120 ng·h/mL
- Clearance [1, 8]: 13.7 mL/min/kg
- Cmax [1, 8]: 850 ± 70 ng/mL
- T1/2 [1, 8]: greater than 5.6 h
- Vd [1, 8]: 3.4 ± 0.5 L/kg
- half-life ([1]; female, CD-1, mouse, in vivo, po, 8 mg/kg, T1/2): 5.6 ± 0.3 h
- Tmax ([1]; female, CD-1, mouse, in vivo, po, 8 mg/kg, Tmax): 1.5 ± 0.3 h
- serum concentration, change with dose and time [1, 4]: significantly increased with the 125 mg/kg doses at 24 and 48 h
- T1/2 ([2]; reported in rats): 1.8 to 4.2 h
